Patent publication US20130345205A1, “SUBSTITUTED BICYCLIC ARALKYL PYRAZOLE LACTAM ANALOGS AS ALLOSTERIC MODULATORS OF MGLUR5 RECEPTORS” (Vanderbilt University, priority 2012, published 2013)

What was measured:
human mGluR5 = human mGluR5 (Homo sapiens, UniProt P41594); experiment: Cell-based functional Ca2+ mobilization assay (FDSS), potentiation of glutamate EC20 response; settings: H10H cell-line (HEK, recombinant human mGluR5); for Emax: glutamate EC20, maximum average response at a single concentration, percent of maximal glutamate response; for EC50: positive allosteric modulation in presence of glutamate EC20, concentration in mol/L
Sequence of human mGluR5 (P41594 21-1180 isoform P41594-2 limits assumed): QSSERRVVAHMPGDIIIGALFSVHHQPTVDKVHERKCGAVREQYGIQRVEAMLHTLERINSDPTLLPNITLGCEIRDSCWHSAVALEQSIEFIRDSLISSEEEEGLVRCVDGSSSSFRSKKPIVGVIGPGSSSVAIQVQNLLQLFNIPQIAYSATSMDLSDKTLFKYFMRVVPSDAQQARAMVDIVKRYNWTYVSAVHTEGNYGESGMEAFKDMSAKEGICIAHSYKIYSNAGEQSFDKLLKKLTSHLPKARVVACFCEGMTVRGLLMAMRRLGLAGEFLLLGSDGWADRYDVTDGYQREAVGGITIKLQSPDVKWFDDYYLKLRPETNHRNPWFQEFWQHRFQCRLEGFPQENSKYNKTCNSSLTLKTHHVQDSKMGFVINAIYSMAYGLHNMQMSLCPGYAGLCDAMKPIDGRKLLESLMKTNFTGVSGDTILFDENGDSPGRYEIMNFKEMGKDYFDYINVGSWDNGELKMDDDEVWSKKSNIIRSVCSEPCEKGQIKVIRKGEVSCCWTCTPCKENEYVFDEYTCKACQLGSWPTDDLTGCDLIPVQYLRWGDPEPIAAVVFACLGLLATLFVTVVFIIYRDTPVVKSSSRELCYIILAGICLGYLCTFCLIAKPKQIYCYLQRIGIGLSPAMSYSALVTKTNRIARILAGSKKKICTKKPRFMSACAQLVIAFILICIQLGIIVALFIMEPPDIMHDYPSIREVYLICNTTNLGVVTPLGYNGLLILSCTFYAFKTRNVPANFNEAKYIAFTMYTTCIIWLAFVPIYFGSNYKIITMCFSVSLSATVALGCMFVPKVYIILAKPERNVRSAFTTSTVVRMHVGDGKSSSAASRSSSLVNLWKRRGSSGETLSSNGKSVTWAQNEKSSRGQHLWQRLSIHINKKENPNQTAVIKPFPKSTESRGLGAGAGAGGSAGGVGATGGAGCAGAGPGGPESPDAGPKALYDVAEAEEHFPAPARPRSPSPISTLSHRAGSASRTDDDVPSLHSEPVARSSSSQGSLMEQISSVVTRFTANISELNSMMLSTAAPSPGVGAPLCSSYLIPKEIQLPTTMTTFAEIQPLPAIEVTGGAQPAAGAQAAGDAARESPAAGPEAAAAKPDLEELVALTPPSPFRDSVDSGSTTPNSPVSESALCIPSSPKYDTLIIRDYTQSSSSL
From the text: Human mGluR5a cDNA in pCMV6-XL6 mammalian expression plasmid was purchased from OriGene Technologies, Inc. (catalogue number SC326357) and subcloned into pcDNA3.1(−). Human embryonic kidney (HEK) 293A cells were then transfected with human mGluR5a pcDNA3.1(−) using LipofectAmine2000 (Invitrogen) and monoclones were selected and tested for functional response using a Ca^2+ mobilization assay. Monoclones were named for the species (“H” for human) plus the location on the plate (e.g. “10H”).
HEK cells transfected with the human mGluR5a receptor (H10H or H12H cell line) were plated at 15,000 cells/well in clear-bottomed poly-D-lysine-coated assay plates (BD Falcon) in glutamate-glutamine-free growth medium and incubated overnight at 37° C. and 5% CO2. Cell-lines used were either the H10H or H12H cell-lines expressing the human mGluR5 receptor. The following day, the growth medium was removed and the cells were washed with assay buffer containing 1× Hank's balanced salt solution (Invitrogen, Carlsbad, Calif.), 20 mM HEPES, 2.5 mM probenecid, pH 7.4 and left with 20 μL of this reagent. Following this step, the cells were loaded with calcium indicator dye, fluo-4 AM, to a final concentration of 2 μM and incubated for 40-45 min at 37° C. The dye solution was removed and replaced with assay buffer. Cell plates were held for 10-15 min at room temperature and were then loaded into the Functional Drug Screening System 6000 (FDSS 6000, Hamamatsu, Japan).
After establishment of a fluorescence baseline for about 3 seconds, the compounds of the present invention were added to the cells, and the response in cells was measured. 2.3 minutes later an EC20 concentration of the mGluR5 receptor agonist glutamate was added to the cells, and the response of the cells was measured for about 1.7 minutes. All test compounds were dissolved and diluted to a concentration of 10 mM in 100% DMSO and then serially diluted into assay buffer for a 2× stock solution in 0.6% DMSO; stock compounds were then added to the assay for a final DMSO concentration of 0.3% after the first addition to the assay well. Calcium fluorescence measures were recorded as fold over basal fluorescence; raw data was then normalized to the maximal response to glutamate. Potentiation of the agonist response of the mGluR5 receptor in the present invention was observed as an increase in response to submaximal concentrations of glutamate in the presence of compound compared to the response to glutamate in the absence of compound.
The concentration-response curves of compounds of the present invention, obtained in the presence of EC20 of mGluR5 receptor agonist glutamate to determine positive allosteric modulation, were generated using Microsoft Excel with IDBS XLFit add-ins. The raw data file containing all time points was used as the data source in the analysis template. This was saved by the FDSS as a tab-delimited text file. Data were normalized using a static ratio function (F/F0) for each measurement of the total 350 values per well divided by each well's initial value. Data was then reduced as to peak amplitudes (Max-Initial Min) using a time range that starts approximately 1 second after the glutamate EC20 addition and continues for approximately 40 seconds. This is sufficient time to capture the peak amplitude of the cellular Calcium response. Individual amplitudes were expressed as % EMax by multiplying each amplitude by 100 and then dividing the product by the mean of the amplitudes derived from the glutamate ECMax-treated wells. pEC50 values for test compounds were generated by fitting the normalized values versus the log of the test compound concentration (in mol/L) using a 4 parameter logistic equation where none of the parameters were fixed. Each of the three values collected at each concentration of test compound were weighted evenly. Individual values falling outside the 95% prediction limits of the curve fit were automatically excluded from the fit. […]

| melting point | Emax (human mGluR5) | EC50 (human mGluR5) | Structure (SMILES) |
| --- | --- | --- | --- |
| 113.4 °C | 68% | 302 nM | Cc1cccc(CN2CCn3nc(COc4ccccc4)cc3C2=O)n1 [Example B3, 5-[(6-methylpyridin-2-yl)methyl]-2-(phenoxymethyl)-6,7-dihydropyrazolo[1,5-a]pyrazin-4(5H)-one] |
| 111.2 °C | 75% | 26.3 nM | O=C1c2cc(COc3ccccc3)nn2CCN1Cc1ccccc1Cl [Example B46] |
| 132 °C | 68.5% | 55 nM | CC1CN([C@H](C)c2ccccc2)C(=O)c2cc(COc3ccccc3)nn21 (single isomer, unassigned) [Example B4, (7*S)-7-methyl-2-(phenoxymethyl)-5-[(1R)-1-phenylethyl]-6,7-dihydropyrazolo[1,5-a]pyrazin-4(5H)-one] |
| 122.8 °C | 72.5% | 31.6 nM | O=C1c2cc(COc3ccccc3)nn2CCN1Cc1cccc(F)c1F [Example B23] |
| 189.6 °C | 70% | 33.9 nM | Cc1ccccc1CN1CCn2nc(COc3ccccc3)cc2C1=O [Example B63] |
| 137.5 °C | 67% | 1000 nM | Cc1ncccc1CN1CCn2nc(COc3ccccc3)cc2C1=O [Example B96] |
| 82.5 °C | 65% | 107 nM | COc1cccc(CN2CCn3nc(COc4ccccc4)cc3C2=O)c1 [Example B36] |
| > 300 °C | 70% | 1740 nM | Cc1nccc(CN2CCn3nc(COc4ccccc4)cc3C2=O)n1 [Example B84] |
| 126.5 °C | 69% | 550 nM | O=C1c2cc(COc3ccccc3)nn2CCN1Cc1ccc(F)cn1 [Example B5, 5-[(5-fluoropyridin-2-yl)methyl]-2-(phenoxymethyl)-6,7-dihydropyrazolo[1,5-a]pyrazin-4(5H)-one] |
| 218 °C | 76% | 55 nM | O=C1c2cc(COc3ccccc3)nn2CCN1Cc1cccc(Cl)c1 [Example B47] |
| 87.6 °C | 68% | 195 nM | COc1cccc(F)c1CN1CCn2nc(COc3ccccc3)cc2C1=O [Example B67] |
| > 300 °C | 59.5% | 30.9 nM | COc1cnc(CN2CCn3nc(COc4ccccc4)cc3C2=O)nc1 [Example B12] |
| 105.8 °C | 69% | 67.6 nM | O=C1c2cc(COc3ccccc3)nn2CCN1Cc1nc2ccccc2s1 [Example B91] |
| 123.4 °C | 63% | 1910 nM | O=C1c2cc(COc3ccccc3)nn2CCN1Cc1cccnc1 [Example B18] |
| 104.2 °C | 69% | 209 nM | O=C1c2cc(COc3ccccc3F)nn2CCN1Cc1ccccc1 [Example B69] |
| 133.2 °C | 68% | 77.6 nM | O=C1c2cc(COc3ccccc3)nn2CCN1Cc1ccc(F)c(F)c1 [Example B21] |
| 110.6 °C | 69.5% | 43.7 nM | O=C1c2cc(COc3ccccc3)nn2CCN1Cc1ccccc1F [Example B19] |
| 96 °C | 73% | 525 nM | COc1cncc(CN2CCn3nc(COc4ccccc4)cc3C2=O)n1 [Example B71] |
| 124.7 °C | 62% | 347 nM | O=C1c2cc(COc3ccccn3)nn2CCN1Cc1ccccc1 [Example B9, 5-benzyl-2-[(pyridin-2-yloxy)methyl]-6,7-dihydropyrazolo[1,5-a]pyrazin-4(5H)-one] |
| 112.6 °C | 66% | 178 nM | CC1(C)CN(Cc2ccccc2)C(=O)c2cc(COc3ccccc3)nn21 [Example B45] |
| 71.8 °C | 69% | 95.5 nM | CN(C)c1cccc(CN2CCn3nc(COc4ccccc4)cc3C2=O)n1 [Example B74] |
